One assay relates to HPV16 L1 protein. The experiment in a line: Detection of HPV L1 capsid protein by immunoblotting (Western blot) in treated Caski cells. The class given is cell-based. The conditions noted are these: Caski cells treated for 28 days, band at approximately 55 kDa, anti HPV16 L1 polyclonal rabbit antibodies, Fig. 4. How it is done:
5-aza-2'-deoxycytidine was added daily to cultures of Caski cells at concentrations […]. Caski cells were cultured with medium changed every 24 hours. Treatments were stopped at day 28 and the cells were grown in the absence of drugs for […]. The same culture conditions were used for untreated and DMSO treated Caski cells. Samples were collected on days 7, 14, 21, 28 and 38 for genomic DNA and total RNA purifications.
Protein extracts were also obtained from Caski cells on days 7, 14, 21, 28 and 38 of treatment. Cells were lysed in RIPA buffer containing Protease Inhibitor Cocktail (Sigma). Whole-cell lysates were prepared in denaturing SDS sample buffer and subjected to 12% SDS-PAGE. Proteins were transferred to PVDF Membrane (Invitrogen) and the blots were blocked with 5% non-fat dry milk in TBS-T buffer. The anti HPV16 L1 polyclonal rabbit antibodies (kindly provided by Dr Martin Muller, DKFZ, Germany) were used to detect the HPV16 L1 protein. Horseradish peroxidase conjugated secondary antibodies (1:2000 dilution, Anti-rabbit IgG, HRP-linked Antibody #7074 (Cell Signaling) were detected using Western Blotting Chemiluminescence Luminol Reagent (Santa Cruz).
(Immunoblotting shows a protein as a band on a membrane.)

For the next assay, the system named is Caski cells. Put plainly: CD107a mobilization (degranulation) assay of L1-stimulated T cells against pretreated Caski cells. The class given is cell-based. Here is the method:
PBMCs were obtained from blood of a healthy, HLA-A*0201 positive donor by density gradient centrifugation with lymphocyte separation medium (PAA, Pasching, Austria). PBMCs were resuspended in RPMI medium (Gibco, Paisley, UK), containing 5% human serum and seeded in cell culture flasks. After 4 hours of adherence at 37°C the non-adherent cells were removed. To stimulate the differentiation of monocytes into dendritic cells, the adherent fraction of cells was cultured in CellGro Medium (CellGenix, Freiburg, Germany) containing GM-CSF (1000 U/ml, Promokine, Heidelberg, Germany) and IL-4 (666,7 U/ml, Promokine, Heidelberg, Germany) for 5-7 days. Then, IL-4 and GM-CSF were added again together with a terminal differentiation-inducing cocktail containing the proinffammatory cytokines IL-6 (1000 U/ml Promokine, Heidelberg, Germany), IL-1β (10 ng/ml Promokine, Heidelberg, Germany), PGE-2 ([…], Promokine, Heidelberg, Germany) and TNF-α (10 ng/ml, Promokine, Heidelberg, Germany) were added and cells were incubated overnight. […]
To monitor the degranulation of L1-stimulated T cells (effectors) induced by Caski cells (targets), Caski cells pretreated with different concentrations of 5-Aza-2'-deoxycytidine (0.1 µM and 1.0 µM) for 12 days or untreated cells were used. […] Degranulation rate was measured as the fraction of CD107a/CD8 double staining cells relative to total CD8 positive cells (Fig. 5).

For a further assay, the system named is cancer cell lines. The conditions noted are these: low-dose treatment; cited from earlier work.

On to `Nc1ncn([C@H]2C[C@H](O)[C@@H](CO)O2)c(=O)n1` [5-aza-2'-deoxycytidine], for which the “L1 protein expression level” value in the assay with HPV16 L1 protein is reported as “Significant increase”. In addition, the “fraction of T cells undergoing degranulation (CD107a/CD8 double staining cells relative to total CD8 positive cells)” value with Caski cells (Caski cells pretreated with 0.1 µM and 1.0 µM for 12 days vs untreated, effectors and targets 1:1, 5 hours, Fig. 5) is listed as “increased”.

Regarding `Nc1ncn([C@@H]2O[C@H](CO)[C@@H](O)[C@H]2O)c(=O)n1` [5-azacytidine], in the assay with cancer cell lines, the “expression of immune-related genes” value was “leads to expression of immune-related genes”.

Take `Nc1ncn([C@@H]2O[C@H](CO)[C@@H](O)[C@H]2O)c(=O)n1` [azacitidine]: the “cytolytic activity of T-cells stimulated in vitro with L1-derived peptides towards Caski cells” value in the assay on Caski cells (treated Caski cells expressing the L1-antigen, degranulation rate, Fig. 5 legend) is given as “Enhanced”.

The values are drawn from patent EP2952182A1, “Compounds and methods for increasing the immune response to papillomavirus” (Universitätsklinikum Heidelberg, priority 2014, dated 2015).
